Where a name gives a salt, the structure may show the parent alone.

For the test, the target named is T1, human V1a receptor (Homo sapiens, UniProt P37288).
T1 construct: expressed in transfected cells; host or cells: HEK293 cells, transiently transfected; membranes prepared
Nature of the test: human V1a receptor binding (3H-Vasopressin SPA, HEK293 membranes). The conditions noted are these: 3H-Vasopressin displacement, membranes of HEK293 cells transiently transfected with human V1a; Ki by Cheng-Prussoff; read-out: pKi (hV1a) (converted). The protocol: The human V1a receptor was cloned by RT-PCR from total human liver RNA. The coding sequence was subcloned in an expression vector after sequencing to confirm the identity of the amplified sequence. […] Cell membranes were prepared from HEK293 cells transiently transfected with the expression vector and grown in 20 liter fermenters with the following protocol.
50 g of cells were resuspended in 30 ml freshly prepared ice cold Lysis buffer (50 mM HEPES, 1 mM EDTA, 10 mM MgCl2 adjusted to pH=7.4+complete cocktail of protease inhibitor (Roche Diagnostics)); homogenized with Polytron for 1 min, and sonicated on ice for 2×2 minutes at 80% intensity (Vibracell sonicator). The preparation was centrifuged 20 min at 500 g at 4° C., the pellet was discarded and the supernatant centrifuged 1 hour at 43,000 g at 4° C. (19,000 rpm). The pellet was resuspended in 12.5 ml Lysis buffer+12.5 ml Sucrose 20% and homogenized using a Polytron for 1-2 min. The protein concentration was determined by the Bradford method and aliquots were stored at −80° C. until use. For binding studies 60 mg Yttrium silicate SPA beads (Amersham) were mixed with an aliquot of membrane in binding buffer (50 mM Tris, 120 mM NaCl, 5 mM KCl, 2 mM CaCl2, 10 mM MgCl2) for 15 minutes with mixing. 50 ul of bead/membrane mixture was then added to each well of a 96 well plate, followed by 50 ul of 4 nM 3H-Vasopressin (American Radiolabeled Chemicals). For total binding measurement 100 ul of binding buffer were added to the respective wells, for non-specific binding 100 ul of 8.4 mM cold vasopressin and for compound testing 100 ul of a serial dilution of each compound in 2% DMSO. The plate was incubated 1 h at room temperature, centrifuged 1 min at 1000 g and counted on a Packard Top-Count. Non-specific binding counts wee subtracted from each well and data was normalized to the maximum specific binding set at 100%. To calculate an IC 50 the curve was fitted using a non-linear regression model (XLfit), and the Ki was calculated using the Cheng-Prussoff equation.

T1 sequence (P37288 whole entry): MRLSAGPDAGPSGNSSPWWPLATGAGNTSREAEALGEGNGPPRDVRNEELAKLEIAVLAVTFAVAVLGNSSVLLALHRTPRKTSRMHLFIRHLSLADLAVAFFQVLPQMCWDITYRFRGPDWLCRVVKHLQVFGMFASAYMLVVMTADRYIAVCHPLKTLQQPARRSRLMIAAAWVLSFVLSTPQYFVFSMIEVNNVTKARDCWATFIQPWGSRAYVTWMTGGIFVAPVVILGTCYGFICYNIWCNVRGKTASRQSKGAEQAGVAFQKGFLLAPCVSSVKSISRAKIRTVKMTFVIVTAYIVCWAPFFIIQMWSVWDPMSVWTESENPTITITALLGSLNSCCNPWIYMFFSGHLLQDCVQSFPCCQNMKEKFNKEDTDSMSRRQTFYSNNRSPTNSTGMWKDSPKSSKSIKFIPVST

For `O=C(c1c[nH]c2cc(Cl)ccc12)N1CCC2(CC1)OCc1cccnc12` [Compound 6, 1′-[(6-Chloro-1H-indol-3-yl)carbonyl]-5H-spiro[furo[3,4-b]pyridine-7,4′-piperidine]], the Ki is 5.25 nM.
Next, `CC(C)(C)OC(=O)N1CCC[C@H]1Cn1cc(C(=O)N2CCC3(CC2)OCc2ccncc23)c2ccc(Cl)cc21` [Compound 11, tert-Butyl (2S)-2-{[6-chloro-3-(1H, 1′H-spiro[furo[3,4-c]pyridine-3,4′-piperidin]-1′-ylcarbonyl)-1H-indol-1-yl]methyl}pyrrolidine-1-carboxylate]: 23.4 nM; `CN1CCC[C@H]1Cn1cc(C(=O)N2CCC3(CC2)OCc2cccnc23)c2ccc(Cl)cc21` [Compound 9, 1′-[(6-Chloro-1-1{[(2S)-1-methylpyrrolidin-2-yl]methyl}-1H-indol-3-yl)carbonyl]-5H-spiro[furo[3,4-b]pyridine-7,4′-piperidine]]: 1 nM.
Next, `CN1CCC[C@H]1Cn1cc(C(=O)N2CCC3(CC2)OCc2ncccc23)c2ccc(Cl)cc21` [Compound 4, 1′-[(6-Chloro-1-{[(2S)-1-methylpyrrolidin-2-yl]methyl}-1H-indol-3-yl)carbonyl]-7H-spiro[furo[3,4-b]pyridine-5,4′-piperidine]]: 1.55 nM; `CN1CCC[C@H]1Cn1cc(C(=O)N2CCC3(CC2)OCc2ccncc23)c2ccc(Cl)cc21` [Compound 13, 1′-[(6-Chloro-1-{[(2S)-1-methylpyrrolidin-2-yl]methyl}-1H-indol-3-yl)carbonyl]-1H-spiro[furo[3,4-c]pyridine-3,4′-piperidine]]: 1.1 nM; `O=C(c1cn(C[C@@H]2CCCN2)c2cc(Cl)ccc12)N1CCC2(CC1)OCc1cccnc12` [Compound 8, 1′-({6-Chloro-1-[(2S)-pyrrolidin-2-ylmethyl]-1H-indol-3-yl}carbonyl)-5H-spiro[furo[3,4-b]pyridine-7,4′-piperidine]dihydrochloride]: 3.31 nM.
As for `CC(C)(C)OC(=O)N1CCC[C@H]1Cn1cc(C(=O)N2CCC3(CC2)OCc2cccnc23)c2ccc(Cl)cc21` [Compound 7, tert-Butyl (2S)-2-{[6-chloro-3-(1′H,5H-spiro[furo[3,4-b]pyridine-7,4′-piperidin]-1′-ylcarbonyl)-1H-indol-1-yl]methyl}pyrrolidine-1-carboxylate], the Ki was 22.9 nM.
With `O=C(c1cn(C[C@@H]2CCCN2)c2cc(Cl)ccc12)N1CCC2(CC1)OCc1ccncc12` [Compound 12, 1′-({6-Chloro-1-[(2S)-pyrrolidin-2-ylmethyl]-1H-indol-3-yl}carbonyl)-1H-spiro[furo[3,4-c]pyridine-3,4′-piperidine]dihydrochloride] the figure was 4.57 nM.
`O=C(c1c[nH]c2cc(Cl)ccc12)N1CCC2(CC1)OCc1ccncc12` [Compound 10, 1′-[(6-Chloro-1H-indol-3-yl)carbonyl]-1H-spiro[furo[3,4-c]pyridine-3,4′-piperidine]]: the Ki was 8.71 nM.
Next, `O=C(c1cn(Cc2cc(F)cc(F)c2)c2cc(Cl)ccc12)N1CCC2(CC1)OCc1ncccc12` [Compound 5, 1′-{[6-Chloro-1-(3,5-difluorobenzyl)-1H-indol-3-yl]carbonyl}-7H-spiro[furo[3,4-b]pyridine-5,4′-piperidine]]: 4.37 nM; `O=C(c1cn(Cc2cc(F)cc(F)c2)c2cc(Cl)ccc12)N1CCC2(CC1)OCc1cccnc12` [Compound 14, 1′-{[6-Chloro-1-(3,5-difluorobenzyl)-1H-indol-3-yl]carbonyl}-5H-spiro[furo[3,4-b]pyridine-7,4′-piperidine]]: 4.27 nM.
With `O=C(c1cn(C[C@@H]2CCCN2)c2cc(Cl)ccc12)N1CCC2(CC1)OCc1ncccc12` [Compound 3, 1′-({6-Chloro-1-[(2S)-pyrrolidin-2-ylmethyl]-1H-indol-3-yl}carbonyl)-7H-spiro[furo[3,4-b]pyridine-5,4′-piperidine]dihydrochloride] the figure was 25.1 nM.

These data come from patent US8034937B2, “Azaspiro derivatives” (Hoffmann-La Roche Inc., priority 2006, dated 2011).
